Measured values taken from ChEMBL document CHEMBL2046287, “Conformation study of 2-arylbenzimidazoles as inhibitors of Chlamydia pneumoniae growth” (2012).

System: Chlamydia pneumoniae
Assay: Growth inhibition of Chlamydia pneumoniae at 10 uM
Format: functional
Settings: read-out: GI

Row | Structure (SMILES) | inhibition of growth at 10 µM
1 | Cc1ccccc1C(=O)Nc1ccccc1 | 99%
2 | Cc1ccccc1-c1nc2ccccc2[nH]1 | 59%
3 | c1ccc(-c2nc3ccccc3[nH]2)cc1 | 89%
4 | O=C(Nc1ccccc1)c1ccco1 | 45%
5 | O=C(Nc1ccccc1)c1ccsc1 | 68%
6 | O=C(Nc1ccccc1)c1ccccc1C(F)(F)F | 96%
7 | Cn1c(-c2ccccc2)nc2ccccc21 | 0%
8 | O=C(Nc1ccccc1)c1cccs1 | 89%
9 | O=C(Nc1ccccc1)c1ccoc1 | 78%
10 | Cn1cccc1C(=O)Nc1ccccc1 | 80%
11 | O=C(Nc1ccccc1)c1ccccc1F | 0%
12 | COc1ccccc1C(=O)Nc1ccccc1 | 0%
13 | O=C(Nc1ccccc1)c1cscn1 | 39%
14 | O=C(Nc1ccccc1)c1ccccn1 | 36%
15 | c1ccc(-c2nc3ccccc3o2)cc1 [2-PHENYLBENZO[D]OXAZOLE] | 61%
16 | O=C(Nc1ccccc1)c1ccccc1 [N-PHENYLBENZAMIDE] | 99%
